# Experimental data as given in EP2050437A1, “Improved pharmaceutical dry powder compositions for inhalation” (Laboratoires SMB, priority 2007, dated 2009).
# Experiments:
# Format in all cases: physicochemical
# [1] = Particle size distribution by laser diffraction, Mastersizer 2000 with dry sampling (Scirocco); conditions: individual particles, dry powder
# Excerpt: However, it may be desirable for unstable (redispersible) agglomerates to be formed in the powder, and the size of the agglomerates may be as large as 10 µm or more. The size of particles in the powder, when considering the agglomerates, is to be taken as the size of the individual particles making up the agglomerate. The sizes of the individual particles and of the agglomerates may be determined using a suitable laser light diffraction techniques. For example, the higher compressed air values applied in the dispersion unit of the Mastersizer 2000® (Malvern, U.K.) (up to 4 bar), permit all the agglomerates to break down, especially for micron-sized powders, as is the case for DPI formulations. […] For each formulation, the particle size distribution is measured by laser diffractometry, using a dry sampling system with a suitable SOP (Standard Operating Procedure), (Scirocco®, Mastersizer 2000, Malvern, UK) and a Spraytec, (Malvern). […] The particle size distribution measured with the Mastersizer 2000, Scirocco (Malvern) gives an indication of the size distribution of the individual particles of the powder composition as the powder agglomerates are broken down during the measuring process. […]
# [2] = Particle size distribution by laser diffraction, Spraytec with inhalation cell (simulated breathing); conditions: agglomerates as at the exit of the DPI
# Excerpt: However, it may be desirable for unstable (redispersible) agglomerates to be formed in the powder, and the size of the agglomerates may be as large as 10 µm or more. The size of particles in the powder, when considering the agglomerates, is to be taken as the size of the individual particles making up the agglomerate. The sizes of the individual particles and of the agglomerates may be determined using a suitable laser light diffraction techniques. For example, the higher compressed air values applied in the dispersion unit of the Mastersizer 2000® (Malvern, U.K.) (up to 4 bar), permit all the agglomerates to break down, especially for micron-sized powders, as is the case for DPI formulations. […] This allows the size properties of DPIs to be measured under simulated breathing conditions. For each formulation, the particle size distribution is measured by laser diffractometry, using a dry sampling system with a suitable SOP (Standard Operating Procedure), (Scirocco®, Mastersizer 2000, Malvern, UK) and a Spraytec, (Malvern). The particle size distribution measured with the Mastersizer 2000, Scirocco (Malvern) gives an indication of the size distribution of the individual particles of the powder composition as the powder agglomerates are broken down during the measuring process. […]
# [3] = In vitro deposition / fine particle assessment with Multi-stage Liquid Impinger (MsLI), Aerolyzer device; parameters: Metered dose / Device / Throat / Stage 1 / Stage 2 / Stage 3 / Stage 4 / Filter: unit not given here; conditions: loaded dose=15mg; for FPD: Fine Particle Dose, aerodynamic diameter inferior to 5 µm
# Experimental: The Fine Particle Dose (FPD) has been determined by the method described in the European Pharmacopoeia 4 for the aerodynamic assessment of fine particle, using Apparatus C - Multi-stage Liquid Impinger (MsLI). A dry powder inhalation device (Aerolyzer®, Novartis, Switzerland) was filled with a No. 3 HPMC capsule (Capsugel, France) loaded with 15 mg powder. The flow rate was adjusted to a pressure drop of 4 kPa, as typical for inspiration by a patient, resulting in a flow rate of 100 l/min during 2.4 seconds. At least 3 Fine Particle Dose (FPD) determinations were performed on each formulation and analysis was carried out by a suitable and validated analytical HPLC method. In order to increase the UV absorptivity of the molecule, a derivatization method was applied. The suitable and validated quantification method is described in the USP 25. The HPLC system consisted of a High Performance Liquid Chromatography system (HP 1100 series, Agilent technologies, Belgium), equipped with a quartenary pump, an autosampler and a variable wavelength UV detector set at 365 nm. The separation system was a 30 cm x 3.9 mm stainless steel (5 µm particle size) reversed-phase C18 column (Alltima, Alltech, Belgium). Samples of 20 µl volume were injected. The mobile phase was prepared by dissolving 2 g of Tris(hydroxymethyl) aminomethane in 800 ml of water. After this, 20 ml of H2SO4 1 N was added and then the solution was diluted with acetonitrile to obtain 2 l, mixed and passed through a filter of 0.2 µm porosity. The flow rate was 1.2 ml/min. The mass of test substance retained at each stage was determined from the HPLC analysis of the recovered solutions. Starting at the filter, a cumulative mass deposition (undersize in percentage) vs. cut-off diameter of the respective stages was derived and the FPD was calculated by interpolating the mass of active ingredient less than 5 µm. […] It is considered to be directly proportional to the amount of drug able to reach the pulmonary tract in vivo, and consequently, the higher the value FPD, the higher the estimated lung deposition. […] Table 2: In vitro deposition study, with formulation given in example 1 vs. micronized tobramycin (raw material) (loaded dose=15mg, n=3).
structure (smiles),measurement,setting,value
"NC[C@H]1O[C@H](O[C@H]2[C@H](O)[C@@H](O[C@H]3O[C@H](CO)[C@@H](O)[C@H](N)[C@H]3O)[C@H](N)C[C@@H]2N)[C@H](N)C[C@@H]1O [Micronized tobramycin, tobramycin]",mass median diameter (d(0.5)),[1],about 1.3 µm
same,particles having a diameter below 5.0 µm,[2],72%
same,FPD,[3]; n=3,5.5 ± 0.9 mg
same,FPD,"[3]; n=3, listed as micronized tobramycin",around 5.5 mg
same,Metered dose,[3]; n=3,12.9 ± 0.3
same,Filter,"[3]; mass deposited, n=3",1.4 ± 0.3
same,Stage 1,"[3]; mass deposited, n=3",0.9 ± 0.3
same,Stage 2,"[3]; mass deposited, n=3",0.6 ± 0.4
same,Stage 3,"[3]; mass deposited, n=3",2.1 ± 0.9
same,Stage 4,"[3]; mass deposited, n=3",1.7 ± 0.6
same,Throat,"[3]; mass deposited, n=3",0.3 ± 0.1
same,Device,"[3]; mass deposited, n=3, 100 l/min during 2.4 seconds",6.0 ± 0.7
